Data set [1] relates to Mycobacterium tuberculosis. As to the kind of experiment: Antitubercular activity against Mycobacterium tuberculosis H37Rv ATCC 27294 at 6.25 ug/ml after 5 days by MABA method. The class given is functional. Particulars: H37Rv ATCC 27294, 120 h, read-out: GI.
Data set [2] in a line: Dissociation constant, pKa of the compound by potentiometric titration method. The class given is physicochemical.
Data set [3] in a line: Cytotoxicity against African green monkey Vero cells assessed as cell survival at 31.2 ug/ml after 72 hrs by MTS-PMS assay. In kind it is cell-based. The settings on record: chlorocebus sabaeus, read-out: Survival.
Another data set has as its system Calf thymus DNA. Briefly: Induction of calf thymus DNA cleavage at 5 uM by ethidium bromide based agarose gel electrophoresis method. In kind it is nucleic-acid assay. Particulars: Bos taurus.
Data set [4] deals with Mycobacterium tuberculosis. As to the kind of experiment: Antitubercular activity against Mycobacterium tuberculosis H37Rv ATCC 27294 after 5 days by MABA method. The settings on record: H37Rv ATCC 27294, 120 h. In kind it is functional.
Data set [5] is described as follows: Cytotoxicity against African green monkey Vero cells assessed as cell survival at 3.9 ug/ml after 72 hrs by MTS-PMS assay. In kind it is cell-based. Particulars: chlorocebus sabaeus, read-out: Survival.
The nature of data set [6]: Cytotoxicity against African green monkey Vero cells assessed as cell survival at 0.9 ug/ml after 72 hrs by MTS-PMS assay. In kind it is cell-based. The settings on record: chlorocebus sabaeus, read-out: Survival.
Data set [7] in a line: Stability of the compound at pH 4.4 to 8.6 by electronic absorption spectroscopic analysis. The class given is physicochemical. Particulars: buffer.
Data set [8] deals with T1, Albumin (Bos taurus, UniProt P02769). Briefly: Binding affinity to bovine serum albumin in pH 7.4 phosphate buffer at 27 degC assessed as association constant by UV-vis spectroscopic analysis. In kind it is ADME. Particulars: cattle, isolated protein.
Data set [9] has as its target T1, Albumin. As to the kind of experiment: Binding affinity to bovine serum albumin assessed as quenching constant in phosphate buffer of pH 7.4 by fluorescence spectroscopic analysis. The class given is ADME. Particulars: cattle, isolated protein.
For data set [10], the target named is T1, Albumin. Briefly: Binding affinity to bovine serum albumin assessed as association constant in phosphate buffer of pH 7.4 by fluorescence spectroscopic analysis. The settings on record: cattle, isolated protein. The class given is ADME.
Data set [11] has as its target T1, Albumin. As to the kind of experiment: Binding affinity to bovine serum albumin in pH 7.4 phosphate buffer at 27 degC assessed as Gibbs free energy change by UV-vis spectroscopic analysis. The class given is ADME. The settings on record: cattle, isolated protein.
For data set [12], the target named is T1, Albumin. Briefly: Binding affinity to bovine serum albumin assessed as Stern-Volmer quenching constant in phosphate buffer of pH 7.4 by fluorescence spectroscopic analysis. In kind it is ADME. Particulars: cattle, isolated protein.
The nature of data set [13]: Stability of the compound at pH 4.4 to 8.2 by electronic absorption spectroscopic analysis. The class given is physicochemical. Particulars: buffer.
Data set [14] is described as follows: Cytotoxicity against African green monkey Vero cells assessed as cell survival at 0.4 ug/ml after 72 hrs by MTS-PMS assay. In kind it is cell-based. The settings on record: chlorocebus sabaeus, read-out: Survival.
Data set [15] concerns the target T1, Albumin. As to the kind of experiment: Binding affinity to bovine serum albumin in pH 7.4 phosphate buffer at 27 degC by UV-vis spectroscopic analysis. In kind it is ADME. Particulars: cattle, isolated protein.
Data set [16] in a line: Cytotoxicity against African green monkey Vero cells assessed as cell survival at 1.9 ug/ml after 72 hrs by MTS-PMS assay. In kind it is cell-based. The settings on record: chlorocebus sabaeus, read-out: Survival.
Data set [17] can be described thus: Cytotoxicity against African green monkey Vero cells assessed as cell survival at 0.2 ug/ml after 72 hrs by MTS-PMS assay. The class given is cell-based. Particulars: chlorocebus sabaeus, read-out: Survival.

≈ marks a conversion by molar mass, not a printed value. Calls of active or inactive are those of the source. The rule behind the calls is not given here.

T1 sequence (P02769 whole entry): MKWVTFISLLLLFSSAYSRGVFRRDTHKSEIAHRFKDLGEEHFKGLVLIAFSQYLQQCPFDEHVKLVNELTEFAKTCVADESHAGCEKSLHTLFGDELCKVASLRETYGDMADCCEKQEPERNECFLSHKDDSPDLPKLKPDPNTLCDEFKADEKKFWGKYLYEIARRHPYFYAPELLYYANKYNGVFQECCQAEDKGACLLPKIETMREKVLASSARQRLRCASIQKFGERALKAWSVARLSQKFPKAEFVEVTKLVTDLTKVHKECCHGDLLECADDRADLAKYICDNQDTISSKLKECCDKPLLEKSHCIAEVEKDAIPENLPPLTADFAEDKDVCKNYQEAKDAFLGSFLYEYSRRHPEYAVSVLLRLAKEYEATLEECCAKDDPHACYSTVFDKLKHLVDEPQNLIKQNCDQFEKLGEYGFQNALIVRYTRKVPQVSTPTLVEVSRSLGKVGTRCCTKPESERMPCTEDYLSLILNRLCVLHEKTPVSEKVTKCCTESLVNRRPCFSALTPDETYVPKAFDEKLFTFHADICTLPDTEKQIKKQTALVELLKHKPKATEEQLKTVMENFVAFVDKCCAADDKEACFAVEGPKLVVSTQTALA

In the case of `CC(=O)/C(C)=N/OCc1cc(=O)oc2ccc3ccccc3c12`, in data set [1], the inhibition of growth at 6.25 µg/mL stood at 90%. Besides, the pKa in data set [2] was 5.6. The viability at 72 h, 31.2 ug/ml in [3] worked out at 67%. The result with Calf thymus DNA was Active. The MIC in data set [4] stood at 3.12 µg/mL (≈ 10.1 µM).
Turning to `CC(=O)/C(C)=N/OCc1cc(=O)oc2cc(C)ccc12`, the inhibition of growth at 6.25 µg/mL in data set [1] came to 91%. The molecule also displayed a pKa in data set [2] of 5.5. Also, the outcome with Calf thymus DNA was inactive. This molecule had a minimum inhibitory concentration (MIC) in data set [4] of 0.39 µg/mL (≈ 1.43 µM). Moreover, the viability at 72 h, 3.9 ug/ml in data set [5] amounted to 59%.
As to `CC(=O)/C(C)=N/OCc1cc(=O)oc2c(C)c(C)ccc12`, the viability at 72 h, 0.9 ug/ml in data set [6] amounted to 84%. Moreover, the inhibition of growth at 6.25 µg/mL in data set [1] was 95%. In [2], the pKa came to 5.5. The outcome in the data set on Calf thymus DNA was Active. The minimum inhibitory concentration (MIC) in data set [4] turned out to be 0.09 µg/mL (≈ 0.313 µM). In addition, in data set [7], the Stability entry is “Stable”.
Consider `CC(=O)/C(C)=N/OCc1cc(=O)oc2ccc(C)cc12`, for which, in data set [1], the inhibition of growth at 6.25 µg/mL was 92%. The same molecule came in with a pKa in [2] of 5.7. For the same molecule, the outcome in the data set with Calf thymus DNA was Active. In data set [4], the minimum inhibitory concentration (MIC) stood at 0.39 µg/mL (≈ 1.43 µM). In addition, the Stability entry in data set [7] is listed as “Stable”. For the same molecule, in [5], the viability at 72 h, 3.9 ug/ml stood at 72%.
With `CC(=O)/C(C)=N/OCc1cc(=O)oc2c1ccc1ccccc12`, the inhibition of growth at 6.25 µg/mL in data set [1] is 87%. In data set [2], this molecule came in with a pKa of 5.6. Besides, the outcome with Calf thymus DNA was inactive.
Take `CC(=O)/C(C)=N/OCc1cc(=O)oc2cc(C)cc(C)c12`: in data set [1], the inhibition of growth at 6.25 µg/mL was 97%. Also, the figures for the Ka on Albumin [8] and on Albumin [10] were 1.24 ×10⁴ L/mol and 1.37 ×10⁴ L/mol, respectively. Also, the Kq at Albumin [9] stood at 1.07 ×10¹³ /mol/s. In [2], this molecule came in with a pKa of 5.5. In addition, the deltaG at Albumin [11] is -5.619 kcal/mol. The outcome in the data set with Calf thymus DNA was Active. For the same molecule, the KSV at Albumin [12] is recorded as 6.19 ×10⁴ /mol. For the same molecule, the Stability result in data set [13] was “Stable”. The molecule further displayed an MIC in [4] of 0.04 µg/mL (≈ 0.139 µM). Besides, the viability at 72 h, 0.4 ug/ml in data set [14] was 89%. In addition, the Activity entry on Albumin [15] is on record as “Dose-dependent effect”.
As to `CC(=O)/C(C)=N/OCc1cc(=O)oc2cc(Cl)ccc12`, in [1], the inhibition of growth at 6.25 µg/mL is 21%. Besides, in data set [2], the pKa was determined as 5.4. Moreover, the outcome with Calf thymus DNA was inactive.
`CC(=O)/C(C)=N/OCc1cc(=O)oc2ccc(Br)cc12`: the inhibition of growth at 6.25 µg/mL in data set [1] is 81%. The same molecule had a pKa in data set [2] of 5.4. The outcome with Calf thymus DNA was Active.
As for `O=c1cc(CSC2=NCCS2)c2cc(Cl)ccc2o1`, inhibition of growth in [4] (MIC) required 0.09 µg/mL (≈ 0.289 µM).
For `COc1ccc2oc(=O)cc(CO/N=C(\C)C(C)=O)c2c1`, in data set [1], the inhibition of growth at 6.25 µg/mL was determined as 94%. For the same molecule, the viability at 72 h, 1.9 ug/ml in data set [16] was 78%. Further, the pKa in data set [2] worked out at 5.8. Moreover, in the data set on Calf thymus DNA, the result was Active. In data set [4], this molecule registered an MIC of 0.19 µg/mL (≈ 0.657 µM). Moreover, the Stability result in [7] is given as “Stable”.
Consider `NNC(=O)c1ccncc1` [ISONIAZID], for which the inhibition of growth at 6.25 µg/mL in [1] came to 100%. The same molecule displayed a pKa in data set [2] of 1.8 to 9.5. This molecule also yielded an MIC in data set [4] of 0.02 µg/mL (≈ 0.146 µM). For the same molecule, the viability at 72 h, 0.2 ug/ml in data set [17] was 98%.
With `CC(=O)/C(C)=N/OCc1cc(=O)oc2ccc(Cl)cc12`, the inhibition of growth at 6.25 µg/mL in data set [1] was determined as 26%. In [2], this molecule gave a pKa of 5.4. In the data set with Calf thymus DNA, the outcome was Active.
